Measurements published in patent publication US20250109156A1, “INDOLE-CONTAINING MACROCYCLIC COMPOUNDS AND USES THEREOF” (JIANGSU AOSAIKANG PHARMACEUTICAL CO., LTD., priority 2022, published 2025).

What was measured:
CDK7/CyclinH/MAT1 = CDK7/CyclinH/MAT1 (Homo sapiens (Human), UniProt P50613); test: In vitro CDK7/CyclinH/MAT1 enzyme activity assay (TR-FRET); assay type: biochemical; conditions: Ulight-MBP peptide, 25° C. 60 minutes
Method: Experimental Example 1: In Vitro CDK7/[…] Enzyme Activity Assay
CDK7/CyclinH/MAT1 was purchased from CARNA. Ulight-MBP peptide, Eu-MBP antibody, and 1× detection buffer were purchased from PerkinElmer. High-purity ATP was purchased from Promega. EDTA was purchased from Sigma. Nivo multimode microplate reader (PerkinElmer).
(§1) Preparation of kinase buffer: the kinase buffer containing 50 mM HEPES, 1 mM EDTA, 10 mM MgCl2, 0.01% Brij-35, pH 7.4.
(§2) 2.38 g of HEPES, 58 mg of EDTA, 406 mg of MgCl2, and 20 mg of Brij-35 were added to 200 mL of buffer, and the pH was adjusted to 7.4.
(§3) 100 μL of 1 M EDTA stock solution was mixed with 0.625 μL of 1× detection buffer and 1725 μL of distilled water to prepare the stop solution.
Enzyme, Ulight-MBP peptide, ATP, and inhibitors were diluted with the kinase buffer.
The Eu-MBP antibody was diluted to a concentration of 8 nM/L using detection buffer.
(§4) The compounds to be tested were 5-fold diluted with a multi-channel pipette to the 8th concentration, i.e., from 40 μM to 0.512 nM, with a final DMSO concentration of 4%. The experiment was set up in duplicate wells. 2.5 μL of each concentration gradient of the inhibitor was added to the microplate, followed by 5 μL of CDK7/CyclinH/MAT1 enzyme (5 ng), and 2.5 μL of a mixture of substrate and ATP (4 mM ATP, 50 nM Ulight-MBP peptide). At this point, the final concentration gradient of the compound was 10 μM diluted to 0.128 nM. The reaction system was reacted at 25° C. for 60 minutes. After the reaction, 5 μL of stop solution was added to each well, and the reaction was continued at 25° C. for 5 minutes. After stopping the reaction, 5 μL of Eu-MBP antibody dilution was added to each well, and the mixture was reacted at 25° C. for 60 minutes. Data were then collected using the PerkinElmer Nivo multimode microplate reader in TR-FRET mode (excitation wavelength: 320 nm, emission wavelength: 665 nm).
Using the equation (Sample−Min)/(Max−Min)*100% to convert the raw data into inhibition rate, the IC50 value may be obtained by curve fitting with four parameters (obtained by “log (inhibitor) vs. response—Variable slope” mode in GraphPad Prism). Table 1 provides the CDK7/CyclinH/MAT1 enzymatic inhibitory activity of the compounds of the present disclosure.

CDK2/CyclinE1 = CDK2/CyclinE1 (Homo sapiens (Human), UniProt P24941); test: In vitro CDK2/CyclinE1 enzyme activity assay (TR-FRET); assay type: biochemical; conditions: Ulight-4E-BP1 peptide, 25° C. 120 minutes
Method: Experimental Example 2: In Vitro CDK2/[…] Enzyme Activity Assay
CDK2/CyclinE1 was purchased from SignalChem. Ulight-4E-BP1 peptide, Eu-anti-phospho-tyrosine antibody, and 1× detection buffer were purchased from PerkinElmer. High-purity ATP was purchased from Promega. EDTA was purchased from Sigma. Nivo multimode microplate reader (PerkinElmer).
as §1, §2, §3
Enzyme, Ulight-4E-BP1 peptide, ATP, and inhibitors were diluted with the kinase buffer.
The Eu-anti-phospho-tyrosine antibody was diluted to a concentration of 8 nM/L using detection buffer.
as §4, with “μL of CDK2/CyclinE1 enzyme (10” for “μL of CDK7/CyclinH/MAT1 enzyme (5”, “CDK2/CyclinE1 enzyme (10 ng), and” for “CDK7/CyclinH/MAT1 enzyme (5 ng), and”, “mM ATP, 100 nM Ulight-4E-BP1” for “mM ATP, 50 nM Ulight-MBP”, “100 nM Ulight-4E-BP1 peptide). At” for “50 nM Ulight-MBP peptide). At”, “C. for 120 minutes. After” for “C. for 60 minutes. After”, “μL of Eu-anti-phospho-tyrosine antibody dilution” for “μL of Eu-MBP antibody dilution”
Using the equation (Sample−Min)/(Max−Min)*100% to convert the raw data into inhibition rate, the IC50 value may be obtained by curve fitting with four parameters (obtained by “log (inhibitor) vs. response—Variable slope” mode in GraphPad Prism). Table 1 provides the CDK2/CyclinE1 enzymatic inhibitory activity of the compounds of the present disclosure.

OVCAR3 cells = test: In vitro OVCAR3 cell activity assay (CellTiter-Glo proliferation); assay type: cell-based; conditions: Homo sapiens, OVCAR-3, 72 h, 3 days incubation
Method: Experimental Example 5: In Vitro OVCAR3 Cell Activity Assay
1640 culture medium, fetal bovine serum, penicillin/streptomycin antibiotics were purchased from WISENT. CellTiter-Glo (cell viability chemiluminescence detection reagent) reagent was purchased from Promega. OVCAR3 cell line was purchased from Nanjing Cobioer Biosciences Co. Ltd. Nivo multimode microplate reader (PerkinElmer).
The OVCAR3 cells were seeded in a white 96-well plate, with 80 μL of cell suspension per well, containing 2000 OVCAR3 cells each. The cell plate was incubated overnight in a CO2 incubator.
The compounds to be tested were 5-fold diluted with a multi-channel pipette to the 8th concentration, i.e., diluted from 200 μM to 0.512 nM, and the experiment was set up in duplicate wells. 78 μL of culture medium was added to an intermediate plate, and then 2 μL of gradient diluted compound per well was transferred to the intermediate plate according to the corresponding position. After mixing well, the compound was transferred to the cell plate at 20 μL per well. The concentration of the compound transferred to the cell plate ranged from 1 μM to 0.0026 nM. The cell plate was incubated in a CO2 incubator for 3 days. Another cell plate was prepared to measure the signal on the day of drug addition as the maximum value (denoted as Max in the equation below) for data analysis. 25 μL of cell viability chemiluminescence detection reagent was added to each well of this cell plate, and incubated at room temperature for 10 minutes to stabilize the luminescent signal. A multimode microplate reader was used for reading. […]
Using the equation (Sample−Min)/(Max−Min)*100% to convert the raw data into inhibition rate, the IC50 value may be obtained by curve fitting with four parameters (obtained by “log (inhibitor) vs. response—Variable slope” mode in GraphPad Prism). Table 1 provides the inhibitory activity of the compounds of the present disclosure on the proliferation of OVCAR3 cells.

Chain of CDK7/CyclinH/MAT1 (P50613 whole entry): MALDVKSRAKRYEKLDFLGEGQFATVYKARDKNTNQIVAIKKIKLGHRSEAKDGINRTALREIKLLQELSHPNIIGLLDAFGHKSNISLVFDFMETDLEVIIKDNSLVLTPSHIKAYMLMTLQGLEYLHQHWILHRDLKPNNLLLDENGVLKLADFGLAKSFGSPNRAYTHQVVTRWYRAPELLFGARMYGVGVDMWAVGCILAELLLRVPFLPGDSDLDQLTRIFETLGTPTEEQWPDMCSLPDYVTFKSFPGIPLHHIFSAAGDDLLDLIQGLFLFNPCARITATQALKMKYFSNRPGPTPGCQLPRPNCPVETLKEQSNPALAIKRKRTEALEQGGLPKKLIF
Chain of CDK7/CyclinH/MAT1 (P51946 whole entry partner): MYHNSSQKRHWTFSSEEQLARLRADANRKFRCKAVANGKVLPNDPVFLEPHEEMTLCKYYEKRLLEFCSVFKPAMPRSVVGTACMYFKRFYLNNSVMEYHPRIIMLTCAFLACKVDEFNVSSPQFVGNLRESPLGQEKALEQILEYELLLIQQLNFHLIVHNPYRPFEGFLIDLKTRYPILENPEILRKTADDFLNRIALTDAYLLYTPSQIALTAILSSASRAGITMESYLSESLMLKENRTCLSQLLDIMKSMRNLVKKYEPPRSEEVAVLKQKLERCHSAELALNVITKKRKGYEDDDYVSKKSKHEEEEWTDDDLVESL
Chain of CDK7/CyclinH/MAT1 (P51948 whole entry partner): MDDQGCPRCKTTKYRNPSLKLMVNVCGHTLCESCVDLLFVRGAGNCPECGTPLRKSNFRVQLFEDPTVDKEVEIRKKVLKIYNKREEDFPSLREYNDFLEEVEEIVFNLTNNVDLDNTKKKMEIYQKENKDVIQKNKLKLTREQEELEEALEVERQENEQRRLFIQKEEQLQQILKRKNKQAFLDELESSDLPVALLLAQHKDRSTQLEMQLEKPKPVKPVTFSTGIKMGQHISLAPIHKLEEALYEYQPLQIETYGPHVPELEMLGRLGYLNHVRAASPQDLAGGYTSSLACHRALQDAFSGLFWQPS

Row | SMILES | IC50 (CDK7/CyclinH/MAT1) | IC50 (CDK2/CyclinE1) | IC50 (OVCAR3 cells)
1 | CN1CCCCN2CCCC[C@@H](C2)Nc2ncc(C(F)(F)F)c(n2)-c2c[nH]c3c(P(C)(C)=O)c(ccc23)C1=O [Compound 3] | 1.1 nM | > 1000 nM | 0.6 nM
2 | CP(C)(=O)c1c2ccc3c(c[nH]c13)-c1nc(ncc1C(F)(F)F)N[C@H]1CCCN(CCCCCCO2)C1 [Compound 4] | 1.6 nM | > 1000 nM | 0.2 nM
3 | CP(C)(=O)c1c2ccc3c(c[nH]c13)-c1nc(ncc1C(F)(F)F)N[C@H]1CCCN(CCCCNC2=O)C1 [Compound 5] | 1.2 nM | 738 nM | 0.2 nM
4 | CP(C)(=O)c1c2ccc3c(c[nH]c13)-c1nc(ncc1C(F)(F)F)N[C@H]1CCCCN(CCCCNC2=O)C1 [Compound 6] | 1.4 nM | > 1000 nM | 0.6 nM
5 | CN1CCCCN2CCC[C@@H](C2)Nc2ncc(C(F)(F)F)c(n2)-c2c[nH]c3c(P(C)(C)=O)c(ccc23)C1=O [Formate of compound 1] | 1 nM | 253 nM | 0.3 nM
